In the test the target is T1, beta-amyloid (Aβ) (Homo sapiens, UniProt P05067).
T1 construct: gene APP; Aβ plaques (fibrillar deposits) in cortical homogenates of APPswe (Tg2576) mice expressing APP with the Swedish mutation
As to the kind of experiment: radioligand saturation binding in APPswe mouse cortical homogenates; autoradiography.

T1 sequence (P05067 18-770): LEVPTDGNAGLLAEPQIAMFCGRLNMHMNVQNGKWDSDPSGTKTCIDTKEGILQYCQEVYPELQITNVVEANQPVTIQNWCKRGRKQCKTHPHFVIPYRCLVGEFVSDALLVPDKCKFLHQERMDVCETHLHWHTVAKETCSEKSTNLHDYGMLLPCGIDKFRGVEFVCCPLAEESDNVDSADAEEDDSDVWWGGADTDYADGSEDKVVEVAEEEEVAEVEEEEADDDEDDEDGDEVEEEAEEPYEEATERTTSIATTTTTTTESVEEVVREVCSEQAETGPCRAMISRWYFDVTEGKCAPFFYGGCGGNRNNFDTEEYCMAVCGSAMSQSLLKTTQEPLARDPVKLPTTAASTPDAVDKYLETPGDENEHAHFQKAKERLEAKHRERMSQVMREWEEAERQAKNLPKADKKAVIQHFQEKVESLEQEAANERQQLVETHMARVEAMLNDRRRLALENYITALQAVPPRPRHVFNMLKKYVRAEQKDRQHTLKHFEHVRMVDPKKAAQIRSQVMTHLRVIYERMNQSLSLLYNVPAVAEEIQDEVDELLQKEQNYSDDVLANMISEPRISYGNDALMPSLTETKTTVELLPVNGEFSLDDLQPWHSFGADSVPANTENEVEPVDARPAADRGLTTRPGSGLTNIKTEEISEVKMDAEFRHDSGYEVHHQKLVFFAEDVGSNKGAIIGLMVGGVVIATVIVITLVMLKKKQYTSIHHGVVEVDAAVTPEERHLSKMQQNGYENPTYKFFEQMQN

Take `CNc1ccc(-c2nc3ccc(O)cc3s2)cn1` [AZD2184]: the affinity, expressed as Kd, was 10.6 nM.

The record behind these values is publication PMC4424277, “Astrocytosis precedes amyloid plaque deposition in Alzheimer APPswe transgenic mouse brain: a correlative positron emission tomography and in vitro imaging study” (European Journal of Nuclear Medicine and Molecular Imaging, 2015).
